Data as given in patent US20240075004A1, “VERY-LONG-CHAIN POLYUNSATURATED FATTY ACIDS, ELOVANOID HYDROXYLATED DERIVATIVES, AND METHODS OF USE” (The Board of Supervisors of Louisiana State University and …, priority 2020, published 2024).

Key:
[1] = test system: primary human RPE cells; assay: Primary human RPE cells challenged with OAβ: SA-β-Gal staining and qPCR; type: cell-based; conditions: 10 μM OAβ; qPCR after 3 days, SA-β-Gal after 7 days
Protocol: All experiments with primary human RPE cells were approved by the Institutional Review Board of LSUHNO and conducted in accordance with NIH guidelines. Cells were collected from anonymous donors provided by eye banks. Briefly, globes of a person, without eye pathology were obtained from NDRI within 24 hours after death from head trauma. Globes were opened, and RPE cells harvested and cultured (1, 2) and grown in MEM medium supplemented with 10% FBS, 5% NCS, non-essential amino acids, Penicillin-Streptomycin (100 U/mL), human fibroblast growth factor 10 ng/ml and incubated at 37° C. with a constant supply of 5% CO2. Cells integrity was validated as in previous study (3). For oligomeric Aβ treatment, cells were seeded in the 6-well plates, 30.000 cells/cm2. After 2 days, sub-confluent cells were treated with 10 μM OAβ or with PBS (vehicle control).
Aβ (1-42) (HFIP-treated, ANASPEC Company, Fremont, CA, USA, Cat AS-64129) was resuspended by adding 1% NH4OH/Water and DMSO to obtain a concentration 500 μM and sonicated for 10 min. […]
Cells were visualized using SA-β-Gal staining kit (Cat 9860, Cell Signaling Technology, MA, USA). […] Pictures were taken under brightfield microscope (Nikon Eclipse TS100) 200× magnification after the development of blue color, and cells counted in 10 different random fields per well. […]

[2] = test system: senescence, autophagy, AMD, ECM remodeling and apoptosis genes; assay: RPE and retina gene expression (qPCR) after subretinal OAβ (1-42) injection; type: in vivo, C57BL/6J WT mice; conditions: OAβ subretinally administered in WT mice
Protocol: (§1) All animal experiments were performed according to ARVO Statement for the Use of Animals in Ophthalmic and Vision Research, and the protocol was approved by LSU Health New Orleans' Institutional Animal Care and Use Committee (IACUC). 6-month-old 5×FAD mice (stock number: 34848-JAX, The Jackson Laboratory, Bar Harbor, ME, USA), co-overexpress FAD mutant forms of human amyloid precursor protein (the Swedish mutation: K670N, M671L; the Florida mutation: I716V; and the London mutation: V7171) and presenilin 1 (PS1, encoded by Psen1: M146L, L286V) transgenes under transcriptional control of the neuron-specific mouse Thy1 promoter. 5×FAD mice were hemizygotes with respect to the transgenes and non-transgenic WT littermates. Genotyping was performed by PCR of tail DNA. All analyses were carried out blind with respect to the mice genotype. […]
For the in vivo experiments, eyeballs were enucleated and anterior segment containing the cornea, lens and iris removed and the retina separated from the rest of the eyecup (RPE/choroid). […] Quantitative PCR was performed in a CFX-384 Real-Time PCR system (Bio-Rad). The expression of target genes was normalized to the geometric mean of housekeeping genes and relative expression was calculated by the comparative threshold cycle method (ΔΔCT).

[3] = test system: p16INK4a; assay: p16INK4a western blots of RPE/Choroid after subretinal OAβ injection; type: in vivo, C57BL/6J WT mice; conditions: elevated by OAβ injection; subretinal co-injection 200 ng with 10 μM OAβ, topical drops 200 nM twice a day; day 7
Protocol: as §1, with “genotype. For the subretinal injection, 6-month-old C57BL/6J mice were anesthetized by an intraperitoneal injection of ketamine/xylazine, pupils dilated with 1.0% tropicamide (Akorn, IL, USA); and 0.5% Proparacaine Hydrochloride (Akorn) was applied for topical anesthesia.” for “genotype.”
Samples were lysed by RIPA buffer and protein determined by Bradford assay (Bio-Rad, Hercules, CA, USA). […] Densitometry data were statistically analyzed at 95% confidence level.

[4] = methyl ester or sodium salt, cited from earlier work; for infarct volumes: administered 1 hour following 2 hours of ischemia by MCA occlusion; for cell survival / neurovascular unit disruption: administered 1 hour following 2 hours of ischemia

Row | SMILES | OAβ-altered RPE cell morphology, SASP (SA-β-Gal staining) and expression of senescence, AMD, matrix metalloproteinase and autophagy-related genes [1] | OAβ-activated senescence program (p16INK4a, MMP1, p53, p21, p27, Il-6 gene expression, SASP secretome) followed by RPE and PRC demise [2] | expression of the key senescence marker p16INK4a (western blots of RPE/Choroid) [3] | infarct volumes [4] | cell survival [4] | neurovascular unit disruption [4]
1 | CC/C=C\C[C@H](O)\C=C/C=C/C=C/[C@H](O)C/C=C\C/C=C\CCCCCCCCCCCCCCC(=O)O [ELV-N-34] | reverted these effects | blunt these events and elicit protection to both cells | down regulated | reduced | promoted | diminished
2 | CC/C=C\C[C@H](O)\C=C/C=C/C=C/[C@H](O)C/C=C\C/C=C\CCCCCCCCCCCCC(=O)O [ELV-N-32] | reverted these effects | blunt these events and elicit protection to both cells | down regulated | reduced | promoted | diminished
